Laboratory results: US20050153870A1, “Medicinal composition for diagnosis, prevention, or therapy of multiple risk factor syndrome” (priority 2002, published 2005)

Assays:
DOCA hypertension rat [1] = experiment: Periarteritis nodosa; type: in vivo; conditions: 50 mg/kg perorally, DOCA/saline administered rat having one of the kidneys excised out
Method: Rats having a cardiovascular disease due to hypertension, often develop periarteritis nodosa, which is typical blood-vessel inflammation caused in thin and small artery such as mesenteric artery. […] These are preventive effects. […] To explain more specifically, mineral corticoid is administered to rats having one of the kidneys excised out and raised for a month by giving saline as drinking water. After confirming onset of periarteritis nodosa, administration of mineral corticoid and saline is stopped and the rats are brought back under normal feeding conditions. As a result, the blood pressure of the rats gradually decreases near a normal value and periarteritis nodosa heals and disappears.

quail = experiment: Arteriosclerosis suppressing effect, quail on cholesterol feed; type: in vivo; conditions: poultry feed containing 2% of cholesterol, 9 months, 0.0125 to 0.2% added to feed
Text: (§1) As to prevention/therapy of arteriosclerosis, a big difference is observed in effect between medicaments conceivably effective in improving arteriosclerosis, such as fibrate series medicament, thiazolidine series medicament, probucol, and statin series medicament and a compound of the present invention.

[2] = system: patients with type II diabetes; experiment: Glucose tolerance test in Clinical test II; type: in vivo, human; conditions: 50 g of glucose perorally at fasting; after therapy of 12 weeks vs before; 30 patients
Method: A glucose tolerance test were performed by perorally taking 50 g of glucose at fasting time in the early morning and measuring concentrations of blood sugar and urine sugar with time. A solid line represents the results immediately before therapy and a broken line represents immediately after the therapy of 12 weeks. Since a process of a glucose tolerance test more or less varied depending upon medical institutions, data of all patients (30 patients) with type II diabetes participated in this test in a single and the same institution are statistically analyzed and shown. […] Note that, in the FIGS. 2 and 3, numerical values each represent average value±standard deviation.

[3] = system: hypercholesterolemia patients; experiment: Clinical test I; type: in vivo, human; conditions: for Fasting blood sugar (FBS) level: 5 patients with high blood sugar
Text: The participants consisted of 9 Caucasian males and 7 Caucasian females. They participated in Clinical test I on a voluntary basis after they signed informed consent for clinical test participation, which was proposed by a medical institution based on the Helsinki declaration.
Their ages were 55 years old in average and ranging from 40 to 82 years old. Their average body weigh was 70.2±13.57 kg (standard deviation).
All participants took dietary therapy for treating hypercholesterolemia. Since various medicaments were administered, the period of 8 weeks, prior to Clinical test I, was provided to stop taking all pills, thereby washing out effects of medicaments. During the period of the Clinical test I, it was not allowed to take any other medicament together with a test medicament. Patients with type II diabetes were excluded from the participants; however, 5 patients with a high blood sugar level were included in the participants. Since they were not diagnosed as diabetes, they were allowed to participate in the test. Of 16 participants, 10 patients had hypertension and 4 patients had borderline hypertension defined by WHO. Only 2 patients had normal blood pressure.

Rat = experiment: Glucogenesis in the liver; type: in vivo; conditions: perorally
Text: Compounds of this series suppresses hepatic glucogenesis which is induced by administration of dexamethazon to a rat. For this reason, it antagonizes the action of glucocorticoid in vivo. The compound further has an effect of suppressing steroid diabetes characterized by polydipsia and polyurea and urine sugar excretion induced by administering cortisol to a rat. […] These facts strongly support that compounds of this series is useful in preventing and/or treating visceral fat syndrome.

[4] = in vivo; cited from earlier work
DOCA hypertension rat [5] = experiment: Hypercardia, thickened arteries, edema in organs; type: in vivo
Text: as §1

[6] = Borderline hypertensive group, 4 patients, 10th week, Placebo period after 8 weeks of medication
[7] = Borderline hypertensive group, 4 patients, 12th week, Placebo period after 8 weeks of medication
[8] = Hypertension group, 10 patients, 10th week, Placebo period after 8 weeks of medication
[9] = Hypertension group, 10 patients, 12th week, Placebo period after 8 weeks of medication

## COc1c(Cl)c(C)c(C=O)c(O)c1C/C=C(C)/C=C/[C@@]1(C)[C@H](C)CCC(=O)[C@@H]1C [4-O-methylascochlorin]
DOCA hypertension rat [1]
  Periarteritis nodosa: significantly suppressed. When ascofuranone is perorally administered to SHR of a
quail
  atherosclerosis of the aorta, hypercholesterolemia, deposition of cholesterol onto the heart and the aorta: the aforementioned changes are suppressed.
[2]
  blood sugar level in glucose tolerance test (FIG. 2): significantly decreases blood sugar level
  urine sugar level in glucose tolerance test (FIG. 3): significantly decreases the concentration of glucose contained in the urine
[3]; 2 patients of normal blood pressure
  normal blood pressure: does not affect normal blood pressure
[3]; 5 cases exhibiting high blood sugar
  blood sugar levels: brought back to normal levels
[3]; 1st week, 0.5 mg/kg, before medication 132.4 ± 16.0
  Fasting blood sugar (FBS) level: 100.0 ± 11.0 mg/dL
[3]; 2nd week, 1.0 mg/kg, before medication 132.4 ± 16.0
  Fasting blood sugar (FBS) level: 102.0 ± 4.0 mg/dL
[3]; 3rd week, 2.0 mg/kg, before medication 132.4 ± 16.0
  Fasting blood sugar (FBS) level: 103.6 ± 12.1 mg/dL
[3]; 4th week, 4.0 mg/kg, before medication 132.4 ± 16.0
  Fasting blood sugar (FBS) level: 103.2 ± 11.7 mg/dL
[3]; 6th week, 8.0 mg/kg, before medication 132.4 ± 16.0
  Fasting blood sugar (FBS) level: 98.0 ± 4.6 mg/dL
[3]; 8th week, 16.0 mg/kg, before medication 132.4 ± 16.0
  Fasting blood sugar (FBS) level: 93.3 ± 6.1 mg/dL
[3]; 10th week, Placebo period after 8 weeks of medication
  Fasting blood sugar (FBS) level: 93.5 ± 6.4 mg/dL
[3]; 12th week, Placebo period after 8 weeks of medication
  Fasting blood sugar (FBS) level: 100.5 ± 11.6 mg/dL
[3]; 5 patients, 6th week, 8 mg/kg
  Blood sugar level: completely returns to a normal level
[3]; 6th week, 16 folds the amount of 0.5 mg/kg
  Total serum cholesterol: decreased to the upper limit of the normal range
[3]; 8 weeks after the initiation of medication, P<0.001
  decrease of body weight compared to before medication: 0.9 kg
[3]; 10 hypertensive patients, 8th week
  blood pressure of the systolic period and the diastolic period: decreased both pressure values to normal levels
[3]; 16 hypercholesterolemia patients
  lowering of serum total cholesterol by medication: ≥ 30%
[3]; 16 hypercholesterolemia patients, 1st week, 0.5 mg/kg, before medication 342.0 ± 61.0
  Total serum cholesterol: 272.6 ± 62.7 mg/dL
[3]; 16 hypercholesterolemia patients, 2nd week, 1.0 mg/kg, before medication 342.0 ± 61.0
  Total serum cholesterol: 266.5 ± 66.7 mg/dL
[3]; 16 hypercholesterolemia patients, 3rd week, 2.0 mg/kg, before medication 342.0 ± 61.0
  Total serum cholesterol: 268.7 ± 66.0 mg/dL
[3]; 16 hypercholesterolemia patients, 4th week, 4.0 mg/kg, before medication 342.0 ± 61.0
  Total serum cholesterol: 254.2 ± 65.7 mg/dL
[3]; 16 hypercholesterolemia patients, 6th week, 8.0 mg/kg, before medication 342.0 ± 61.0
  Total serum cholesterol: 217.4 ± 58.8 mg/dL
[3]; 16 hypercholesterolemia patients, 8th week, 16.0 mg/kg, before medication 342.0 ± 61.0
  Total serum cholesterol: 229.5 ± 61.9 mg/dL
[3]; 16 hypercholesterolemia patients, 10th week, Placebo period after 8 weeks of medication
  Total serum cholesterol: 255.9 ± 57.6 mg/dL
[3]; 16 hypercholesterolemia patients, 12th week, Placebo period after 8 weeks of medication
  Total serum cholesterol: 264.0 ± 57.5 mg/dL
[3]; 16 patients, 12 weeks
  abnormality in the serum biological test, hematocyte test, and urine test: No abnormality ascribed to medication
[3]; 16 patients, 12 weeks, 0.5 to 16.0 mg/kg, not so severe, medication continued
  side effect: one case with light eruption and one case with dizziness
[3]; Borderline hypertensive group, 4 patients, 1st week, 0.5 mg/kg, before medication 87.1 ± 2.7
  Diastolic pressure: 82.1 ± 3.9 mmHg
[3]; Borderline hypertensive group, 4 patients, 1st week, 0.5 mg/kg, before medication 149.3 ± 7.9
  Systolic pressure: 133.6 ± 9.0 mmHg
[3]; Borderline hypertensive group, 4 patients, 2nd week, 1.0 mg/kg, before medication 87.1 ± 2.7
  Diastolic pressure: 81.4 ± 4.8 mmHg
[3]; Borderline hypertensive group, 4 patients, 2nd week, 1.0 mg/kg, before medication 149.3 ± 7.9
  Systolic pressure: 134.3 ± 6.7 mmHg
[3]; Borderline hypertensive group, 4 patients, 3rd week, 2.0 mg/kg, before medication 87.1 ± 2.7
  Diastolic pressure: 81.4 ± 2.4 mmHg
[3]; Borderline hypertensive group, 4 patients, 3rd week, 2.0 mg/kg, before medication 149.3 ± 7.9
  Systolic pressure: 134.3 ± 9.3 mmHg
[3]; Borderline hypertensive group, 4 patients, 4th week, 4.0 mg/kg, before medication 87.1 ± 2.7
  Diastolic pressure: 80.7 ± 3.5 mmHg
[3]; Borderline hypertensive group, 4 patients, 4th week, 4.0 mg/kg, before medication 149.3 ± 7.9
  Systolic pressure: 130.7 ± 8.9 mmHg
[3]; Borderline hypertensive group, 4 patients, 6th week, 8.0 mg/kg, before medication 87.1 ± 2.7
  Diastolic pressure: 78.6 ± 3.8 mmHg
[3]; Borderline hypertensive group, 4 patients, 6th week, 8.0 mg/kg, before medication 149.3 ± 7.9
  Systolic pressure: 130.7 ± 8.9 mmHg
[3]; Borderline hypertensive group, 4 patients, 8th week, 16.0 mg/kg, before medication 87.1 ± 2.7
  Diastolic pressure: 77.9 ± 3.9 mmHg
[3]; Borderline hypertensive group, 4 patients, 8th week, 16.0 mg/kg, before medication 149.3 ± 7.9
  Systolic pressure: 130.0 ± 8.2 mmHg
[3]; [6]
  Diastolic pressure: 78.6 ± 4.8 mmHg
  Systolic pressure: 130.7 ± 9.3 mmHg
[3]; [7]
  Diastolic pressure: 78.6 ± 4.8 mmHg
  Systolic pressure: 132.1 ± 10.4 mmHg
[3]; Hypertension group, 10 patients, 1st week, 0.5 mg/kg, before medication 91.0 ± 7.7
  Diastolic pressure: 83.5 ± 4.7 mmHg
[3]; Hypertension group, 10 patients, 1st week, 0.5 mg/kg, before medication 161.5 ± 21.1
  Systolic pressure: 143.5 ± 28.5 mmHg
[3]; Hypertension group, 10 patients, 2nd week, 1.0 mg/kg, before medication 91.0 ± 7.7
  Diastolic pressure: 83.0 ± 5.4 mmHg
[3]; Hypertension group, 10 patients, 2nd week, 1.0 mg/kg, before medication 161.5 ± 21.1
  Systolic pressure: 147.5 ± 28.5 mmHg
[3]; Hypertension group, 10 patients, 3rd week, 2.0 mg/kg, before medication 91.0 ± 7.7
  Diastolic pressure: 84.5 ± 6.0 mmHg
[3]; Hypertension group, 10 patients, 3rd week, 2.0 mg/kg, before medication 161.5 ± 21.1
  Systolic pressure: 147.5 ± 26.1 mmHg
[3]; Hypertension group, 10 patients, 4th week, 4.0 mg/kg, before medication 91.0 ± 7.7
  Diastolic pressure: 85.5 ± 9.44 mmHg
[3]; Hypertension group, 10 patients, 4th week, 4.0 mg/kg, before medication 161.5 ± 21.1
  Systolic pressure: 148.5 ± 26.8 mmHg
[3]; Hypertension group, 10 patients, 6th week, 8.0 mg/kg, before medication 91.0 ± 7.7
  Diastolic pressure: 83.5 ± 9.44 mmHg
[3]; Hypertension group, 10 patients, 6th week, 8.0 mg/kg, before medication 161.5 ± 21.1
  Systolic pressure: 144.5 ± 29.8 mmHg
[3]; Hypertension group, 10 patients, 8th week, 16.0 mg/kg, before medication 91.0 ± 7.7
  Diastolic pressure: 78.1 ± 3.7 mmHg
[3]; Hypertension group, 10 patients, 8th week, 16.0 mg/kg, before medication 161.5 ± 21.1
  Systolic pressure: 130.0 ± 7.6 mmHg
[3]; [8]
  Diastolic pressure: 83.5 ± 8.8 mmHg
  Systolic pressure: 145.5 ± 26.3 mmHg
[3]; [9]
  Diastolic pressure: 84.0 ± 9.7 mmHg
  Systolic pressure: 151.5 ± 32.4 mmHg
[3]; medication for 8 weeks
  blood pressure of the hypertension group and borderline hypertension group: dropped to the upper limit of a normal range
[3]; one week after 0.5 mg/kg perorally
  drop of total serum cholesterol, average: 70 mg/dL
[3]; ratio of serum neutral fat/serum total cholesterol 1.2 or less (hyperlipemia type IIa)
  Serum neutral fat: significantly decreased
[3]; ratio of serum neutral fat/serum total cholesterol 1.2 or more (hyperlipemia type IIb and type IV)
  Serum neutral fat: a significant decrease of serum neutral fat was not observed
Rat
  glucogenesis performed in the liver: performed in the liver is suppressed.
[4]
  distribution of the isotope-labeled compound: widely and specifically distributed in the adipose tissue as well as in the adrenal gland
  synthesis of steroid hormones (glucocorticoid+mineral corticoid) of adrenal cortex: regulates synthesis of steroid hormones
DOCA hypertension rat [5]
  edema of various organs including the kidney: such as hypercardia and thickened arteries, and suppresses edema of various
  lesions associated with cardiovascular diseases such as hypercardia and thickened arteries: 4-0-methylascochlorin alleviates lesions associated with cardiovascular diseases
